{"source": "patent US20260008862A1", "about": "“Bispecific Anti-BCMA x Anti-CD3 Antibodies and Uses Thereof” (Regeneron Pharmaceuticals, Inc., priority 2018, published 2026)", "key": {"[1]": {"test_system": "BCMA-expressing NCI-H929 tumors", "assay": "NCI-H929 + PBMC xenogenic tumor model, immediate treatment, 4 mg/kg (Example 10)", "assay_type": "in vivo, mouse", "procedure": "To determine the in vivo efficacy of BCMA×CD3 bispecific antibodies (Abs), a xenogenic tumor study was performed. Immunodeficient NOD.Cg-Prkdc^scidIl2rg^tm1Wji/SzJ (NSG) mice were subcutaneously implanted with a mixture of 10×10^6 BCMA-expressing NCI-H929 multiple myeloma cells and 0.5×10^6 human peripheral blood mononuclear cells (PBMC) isolated from a normal donor. […] The mice were administered Abs twice per week for a total of three weeks, and tumor growth was assessed over 40 days. While BCMA^+ tumors grew similarly in the vehicle-, isotype control-, and CD3-binding control-treated mice, both BCMA×CD3 Abs that were tested prevented the growth of tumors in vivo.\nImplantation and measurement of syngeneic tumors: NSG mice were subcutaneously implanted with a mixture of 10×10^6 BCMA-expressing NCI-H929 multiple myeloma cells and 0.5×10^6 PBMC derived from a normal donor. […] The mice were administered Abs twice per week for a total of three weeks. Tumor growth was measured with calipers twice per week for the duration of the experiment. Mice were sacrificed 40 days after tumor implantation.\nCalculation of syngeneic tumor growth and inhibition: In order to determine tumor volume by external caliper, the greatest longitudinal diameter (length in mm) and the greatest transverse diameter (width in mm) were determined. Tumor volumes based on caliper measurements were calculated by the formula: Volume (mm^3)=(length×width^2)/2."}, "[2]": {"test_system": "Jurkat/NFATLuc.3C7 cells + RPMI-8226 cells", "assay": "Jurkat/NFATLuc reporter bioassay with RPMI-8226 cells", "assay_type": "cell-based", "details": "highest RLU / lowest RLU", "procedure": "(§1) Activity of the anti-BCMA×anti-CD3 bispecific antibodies were assessed in a Jurkat/NFATLuc reporter bioassay utilizing several cell lines with varying levels of BCMA surface expression. The Jurkat cells were engineered to express an NFAT-luciferase reporter (Jurkat/NFATLuc.3C7), and 50,000 Jurkat reporter cells were combined with 50,000 BCMA positive (Daudi, MM1-S, NCI-H929, OPM-2, RPMI-8226, MOLP-8, or Raji) or BCMA negative (HEK293) cells in Thermo Nunclon delta 96 well white microwell plates (Thermo Scientific, Cat #136102) in 50 ul of assay media (RPMI media with 10% FBS and 1% P/S/G). Three-fold serial dilutions of the BCMA×CD3 bispecific antibodies (mAb25441 D or mAb25442D), or a bivalent anti-BCMA antibody (mAb21581) were immediately added in 50 μL of assay buffer. The plates were gently agitated and incubated in a 37° C., 5% CO2 incubator for 4-6 hours. NFAT-Luciferase activity was determined using Promega One-Glo (Cat #E6130) and a Perkin Elmer Envision plate reader. RLU were plotted in GraphPad Prism using a four-parameter logistic equation over a 12-point response curve to calculate EC50 values. […] The signal to noise (S:N) is determined by taking the ratio of the highest RLU on the curve to the lowest."}, "[3]": {"target": "T1, cynomolgus CD3 (mfCD3 engineered Jurkat cell line) (Macaca fascicularis, UniProt Q95LI5+Q95LI8)", "T1 construct": "expressed in transfected cells; host or cells: Jurkat cells, CRISPR/Cas9-engineered (mfCD3 engineered Jurkat cell line)", "T1 sequence (Q95LI5 22-198, change not shown)": "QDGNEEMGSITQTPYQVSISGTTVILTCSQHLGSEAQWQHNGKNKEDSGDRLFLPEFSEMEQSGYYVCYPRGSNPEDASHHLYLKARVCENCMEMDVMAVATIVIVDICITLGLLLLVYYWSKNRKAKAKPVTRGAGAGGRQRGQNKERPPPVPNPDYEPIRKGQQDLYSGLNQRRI", "T1 sequence (Q95LI8 22-171, change not shown)": "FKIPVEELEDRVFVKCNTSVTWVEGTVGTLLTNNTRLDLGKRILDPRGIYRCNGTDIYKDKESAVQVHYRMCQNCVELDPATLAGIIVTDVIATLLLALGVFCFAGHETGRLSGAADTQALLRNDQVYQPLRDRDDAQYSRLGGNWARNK", "T1 sequence (P09693 23-182 partner)": "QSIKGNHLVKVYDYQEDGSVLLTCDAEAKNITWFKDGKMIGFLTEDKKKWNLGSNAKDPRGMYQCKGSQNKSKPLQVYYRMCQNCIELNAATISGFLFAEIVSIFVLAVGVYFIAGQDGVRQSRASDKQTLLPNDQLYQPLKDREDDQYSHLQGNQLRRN", "T1 sequence (P20963 22-164 partner)": "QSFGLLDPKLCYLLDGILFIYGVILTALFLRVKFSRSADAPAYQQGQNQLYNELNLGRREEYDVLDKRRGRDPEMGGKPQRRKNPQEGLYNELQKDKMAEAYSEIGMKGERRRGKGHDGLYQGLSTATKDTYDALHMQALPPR", "assay": "FACS binding to mfCD3 engineered Jurkat cells", "details": "median EC50, FACS binding", "procedure": "Flow cytometric analysis was utilized to determine binding of BCMA×CD3 bispecific antibodies to human and cynomolgus CD3 (Jurkat cells, mfCD3 engineered Jurkat cells, primary human CD8+ and cynomolgus CD8+ T cells). Briefly, 1e05 cells/well were incubated in the presence of FACS wash with block (PBS+1% filtered FBS+5% mouse serum) with a serial dilution of BCMA×CD3 and control antibodies for 30 minutes on ice. After incubation, the cells were washed twice with cold FACS wash (PBS+1% filtered FBS) and bound antibody was detected by incubating with Alexa647-conjugated anti-human secondary antibody on ice for an additional 30 minutes. Wells containing no antibody or secondary only were used as a control. For the detection of monkey and human T cells, a cocktail of human and cynomolgus cross-reactive antibodies to CD4, CD8 and CD16 was added to the anti-human secondary. After incubation, cells were washed, re-suspended in 200 μL cold PBS containing 1% filtered FBS and analyzed by flow cytometry on a BD FACS Canto II. Cells were gated by FSC-H by FSC-A to select singlet events, followed by side and forward scatters to select for live events. For monkey T cells, additional gating on CD8+/CD16− cells was performed.\nEC50 values for FACS binding were calculated using 4-parameter non-linear regression analysis in Prism software. […]"}, "[4]": {"test_system": "Jurkat/NFATLuc.3C7 cells + Daudi cells", "assay": "Jurkat/NFATLuc reporter bioassay with Daudi cells", "assay_type": "cell-based", "details": "highest RLU / lowest RLU", "procedure": "as §1"}, "[5]": {"test_system": "Jurkat/NFATLuc.3C7 cells + HEK293 (BCMA negative) cells", "assay": "Jurkat/NFATLuc reporter bioassay with HEK293 cells", "assay_type": "cell-based", "details": "highest RLU / lowest RLU", "procedure": "as §1"}}, "note": "pEC50: −log10 of the molar value. Entries after “also recorded” stand apart in the source; their conditions may differ."}
{"substance": "REGN5458: anti-BCMA×anti-CD3 bispecific antibody: BCMA HCVR of mAb21581 (SEQ 66), CD3 HCVR of mAb7221G (SEQ 90), common LCVR SEQ 82", "values": [{"measurement": "Average Tumor Size (mm3) ± SEM on Day 4", "setting": "[1]", "value": "39.5 ± 9.1", "unit": "mm3"}, {"measurement": "Average Tumor Size (mm3) ± SEM on Day 7", "setting": "[1]", "value": "0 ± 0", "unit": "mm3"}, {"measurement": "Average Tumor Size (mm3) ± SEM on Day 11", "setting": "[1]", "value": "0 ± 0", "unit": "mm3"}, {"measurement": "Average Tumor Size (mm3) ± SEM on Day 14", "setting": "[1]", "value": "0 ± 0", "unit": "mm3"}, {"measurement": "Average Tumor Size (mm3) ± SEM on Day 18", "setting": "[1]", "value": "0 ± 0", "unit": "mm3"}, {"measurement": "Average Tumor Size (mm3) ± SEM on Day 21", "setting": "[1]", "value": "0 ± 0", "unit": "mm3"}, {"measurement": "Average Tumor Size (mm3) ± SEM on Day 28", "setting": "[1]", "value": "0 ± 0", "unit": "mm3"}, {"measurement": "Average Tumor Size (mm3) ± SEM on Day 40", "setting": "[1]", "value": "0 ± 0", "unit": "mm3"}, {"measurement": "S:N", "setting": "[2]", "value": 55}, {"measurement": "pEC50", "setting": "[3]", "value": 7.82}, {"measurement": "S:N", "setting": "[4]", "value": 43}, {"measurement": "S:N", "setting": "[5]", "value": 1}]}
{"substance": "REGN5459: anti-BCMA×anti-CD3 bispecific antibody: BCMA HCVR of mAb21581 (SEQ 66), CD3 HCVR of mAb7221G20 (SEQ 98), common LCVR SEQ 82", "values": [{"measurement": "Average Tumor Size (mm3) ± SEM on Day 4", "setting": "[1]", "value": "26.5 ± 6.2", "unit": "mm3"}, {"measurement": "Average Tumor Size (mm3) ± SEM on Day 7", "setting": "[1]", "value": "0 ± 0", "unit": "mm3"}, {"measurement": "Average Tumor Size (mm3) ± SEM on Day 11", "setting": "[1]", "value": "0 ± 0", "unit": "mm3"}, {"measurement": "Average Tumor Size (mm3) ± SEM on Day 14", "setting": "[1]", "value": "0 ± 0", "unit": "mm3"}, {"measurement": "Average Tumor Size (mm3) ± SEM on Day 18", "setting": "[1]", "value": "0 ± 0", "unit": "mm3"}, {"measurement": "Average Tumor Size (mm3) ± SEM on Day 21", "setting": "[1]", "value": "0 ± 0", "unit": "mm3"}, {"measurement": "Average Tumor Size (mm3) ± SEM on Day 28", "setting": "[1]", "value": "0 ± 0", "unit": "mm3"}, {"measurement": "Average Tumor Size (mm3) ± SEM on Day 40", "setting": "[1]", "value": "0 ± 0", "unit": "mm3"}, {"measurement": "S:N", "setting": "[2]", "value": 42}, {"measurement": "Jurkat-mfCD3 EC50 [M]", "setting": "[3]", "value": "did not bind; also recorded: No Binding"}, {"measurement": "S:N", "setting": "[4]", "value": 25}, {"measurement": "S:N", "setting": "[5]", "value": 1}]}
